The test system of data set [1] is recombinant NL4-3 virus (nef section replaced with Renilla luciferase gene) in MT-2 cells. Put plainly: HIV cell culture assay (antiviral activity, luciferase readout in infected MT-2 cells). It counts as cell-based. The conditions noted are these: Renilla, NL43. The protocol:
HIV cell culture assay-MT-2 cells, 293T cells and the proviral DNA clone of NL4-3 virus were obtained from the NIH AIDS Research and Reference Reagent Program. MT-2 cells were propagated in RPMI 1640 media supplemented with 10% heat inactivated fetal bovine serum (FBS), 100 μg/ml penicillin G and up to 100 units/mL streptomycin. The 293T cells were propagated in DMEM media supplemented with 10% heat inactivated FBS, 100 μg/mL penicillin G and 100 μg/mL streptomycin. A recombinant NL4-3 proviral clone, in which a section of the nef gene was replaced with the Renilla luciferase gene, was used to make the reference virus used in these studies. The recombinant virus was prepared through transfection of the recombinant NL4-3 proviral clone into 293T cells using Transit-293 Transfection Reagent from Minis Bio LLC (Madison, WI). Supernatent was harvested after 2-3 days and the amount of virus present was titered in MT-2 cells using luciferase enzyme activity as a marker by measuring luciferase enzyme activity. Luciferase was quantitated using the EnduRen Live Cell Substrate from Promega (Madison, WI). Antiviral activities of compounds toward the recombinant virus were quantified by measuring luciferase activity in MT-2 cells infected for 4-5 days with the recombinant virus in the presence of serial dilutions of the compound.
The 50% effective concentration (EC50) was calculated by using the exponential form of the median effect equation where (Fa)=1/[1+(ED50/drug conc.)m] (Johnson V A, Byington R T. Infectivity Assay. In Techniques in HIV Research. ed. Aldovini A, Walker B D. 71-76. New York: Stockton Press. 1990).

Data set [2] can be described thus: Compound cytotoxicity, XTT-based colorimetric assay. The format is cell-based. The conditions noted are these: human; uninfected MT2 cells, day 4, XTT assay. The protocol: Compound cytotoxicity and the corresponding CC50 values were determined using the same protocol as described in the antiviral assay except that uninfected cells were used. Cytotoxicity was assessed on day 4 in uninfected MT2 cells by using an XTT (2,3-bis[2-Methoxy-4-nitro-5-sulfophenyl]-2H-tetrazolium-5-carboxyanilide inner salt)-based colorimetric assay (Sigma-Aldrich, St Louis, Mo.).
On the technique in general: Formazan colour is commonly taken as a measure of viable cells.

A value given as a limit tells only on which side of the number the result lay.

The EC50 is the concentration that produces a half-maximal response. The term CC50 denotes the concentration that lowers cell viability or growth by half. A lower CC50 goes with harm at low concentration. With `CC(C)OCCOc1ccc2c(=O)n(-c3ccc(Cl)c4c(NS(C)(=O)=O)nn(C)c34)c([C@H](Cc3cc(F)cc(F)c3)NC(=O)Cn3nc(C(F)F)c4c3C(F)(F)[C@@H]3C[C@H]43)nc2n1` (atropisomer, axis not shown; (P)) [Example 4, N—((S)-1-((3P)-3-(4-chloro-1-methyl-3-(methylsulfonamido)-1H-indazol-7-yl)-7-(2-isopropoxyethoxy)-4-oxo-3,4-dihydropyrido[2,3-d]pyrimidin-2-yl)-2-(3,5-difluorophenyl)ethyl)-2-((3bS,4aR)-3-(difluoromethyl)-5,5-difluoro-3b,4,4a,5-tetrahydro-1H-cyclopropa[3,4]cyclopenta[1,2-c]pyrazol-1-yl)acetamide], the EC50 in data set [1] was less than 0.05 nM. Besides, the CC50 at 4 days in data set [2] was more than 1000 nM.
Regarding `Cn1nc(NS(C)(=O)=O)c2c(Cl)ccc(-n3c([C@H](Cc4cc(F)cc(F)c4)NC(=O)Cn4nc(C(F)F)c5c4C(F)(F)[C@@H]4C[C@H]54)nc4nc(OCCN5CCS(=O)(=O)CC5)ccc4c3=O)c21` (atropisomer, axis not shown; (P)) [Example 7, N—((S)-1-((3P)-3-(4-chloro-1-methyl-3-(methylsulfonamido)-1H-indazol-7-yl)-7-(2-(1,1-dioxidothiomorpholino)ethoxy)-4-oxo-3,4-dihydropyrido[2,3-d]pyrimidin-2-yl)-2-(3,5-difluorophenyl)ethyl)-2-((3bS,4aR)-3-(difluoromethyl)-5,5-difluoro-3b,4,4a,5-tetrahydro-1H-cyclopropa[3,4]cyclopenta[1,2-c]pyrazol-1-yl)acetamide], in data set [1], the EC50 is 0.26 nM. The half-maximal cytotoxic concentration (CC50) at 4 days in data set [2] is more than 1000 nM.
In the case of `Cn1nc(NS(C)(=O)=O)c2c(Cl)ccc(-n3c([C@H](Cc4cc(F)cc(F)c4)NC(=O)Cn4nc(C(F)F)c5c4C(F)(F)[C@@H]4C[C@H]54)nc4nc(OCCN5CCCCC5)ccc4c3=O)c21` (atropisomer, axis not shown; (P)) [Example 11, N—((S)-1-((3P)-3-(4-chloro-1-methyl-3-(methylsulfonamido)-1H-indazol-7-yl)-4-oxo-7-(2-(piperidin-1-yl)ethoxy)-3,4-dihydropyrido[2,3-d]pyrimidin-2-yl)-2-(3,5-difluorophenyl)ethyl)-2-((3bS,4aR)-3-(difluoromethyl)-5,5-difluoro-3b,4,4a,5-tetrahydro-1H-cyclopropa[3,4]cyclopenta[1,2-c]pyrazol-1-yl)acetamide], the EC50 in data set [1] was found to be 0.49 nM. The CC50 at 4 days in data set [2] was more than 1000 nM.
Turning to `CC(C)(C)CCOc1ccc2c(=O)n(-c3ccc(Cl)c4c(NS(C)(=O)=O)nn(CC(F)F)c34)c([C@H](Cc3cc(F)cc(F)c3)NC(=O)Cn3nc(C(F)F)c4c3C(F)(F)[C@@H]3C[C@H]43)nc2n1` (atropisomer, axis not shown; (P)) [Example 14, N—((S)-1-((3P)-3-(4-chloro-1-(2,2-difluoroethyl)-3-(methylsulfonamido)-1H-indazol-7-yl)-7-(3,3-dimethylbutoxy)-4-oxo-3,4-dihydropyrido[2,3-d]pyrimidin-2-yl)-2-(3,5-difluorophenyl)ethyl)-2-((3bS,4aR)-3-(difluoromethyl)-5,5-difluoro-3b,4,4a,5-tetrahydro-1H-cyclopropa[3,4]cyclopenta[1,2-c]pyrazol-1-yl)acetamide], the EC50 in data set [1] came out at 0.12 nM. Further, in data set [2], the 50% cytotoxic concentration (CC50) at 4 days was more than 500 nM.
With `C[C@@H](Oc1ccc2c(=O)n(-c3ccc(Cl)c4c(NS(C)(=O)=O)nn(C)c34)c([C@H](Cc3cc(F)cc(F)c3)NC(=O)Cn3nc(C(F)F)c4c3C(F)(F)[C@@H]3C[C@H]43)nc2n1)C1CCCC1` (atropisomer, axis not shown; (P)) [Example 16, N—((S)-1-((3P)-3-(4-chloro-1-methyl-3-(methylsulfonamido)-1H-indazol-7-yl)-7-((R)-1-cyclopentylethoxy)-4-oxo-3,4-dihydropyrido[2,3-d]pyrimidin-2-yl)-2-(3,5-difluorophenyl)ethyl)-2-((3bS,4aR)-3-(difluoromethyl)-5,5-difluoro-3b,4,4a,5-tetrahydro-1H-cyclopropa[3,4]cyclopenta[1,2-c]pyrazol-1-yl)acetamide], in data set [1], the EC50 was found to be 0.22 nM. Moreover, in data set [2], the half-maximal cytotoxic concentration (CC50) at 4 days is more than 500 nM.
As for `Cn1nc(NS(C)(=O)=O)c2c(Cl)ccc(-n3c([C@H](Cc4cc(F)cc(F)c4)NC(=O)Cn4nc(C(F)F)c5c4C(F)(F)[C@@H]4C[C@H]54)nc4nc(OCCc5nccs5)ccc4c3=O)c21` (atropisomer, axis not shown; (P)) [Example 18, N—((S)-1-((3P)-3-(4-chloro-1-methyl-3-(methylsulfonamido)-1H-indazol-7-yl)-4-oxo-7-(2-(thiazol-2-yl)ethoxy)-3,4-dihydropyrido[2,3-d]pyrimidin-2-yl)-2-(3,5-difluorophenyl)ethyl)-2-((3bS,4aR)-3-(difluoromethyl)-5,5-difluoro-3b,4,4a,5-tetrahydro-1H-cyclopropa[3,4]cyclopenta[1,2-c]pyrazol-1-yl)acetamide], the EC50 in data set [1] stood at 0.038 nM. The molecule also returned a CC50 at 4 days in data set [2] of more than 500 nM.
In the same order, the values of `Cn1nc(NS(C)(=O)=O)c2c(Cl)ccc(-n3c([C@H](Cc4cc(F)cc(F)c4)NC(=O)Cn4nc(C(F)F)c5c4C(F)(F)[C@@H]4C[C@H]54)nc4nc(OCCCS(C)(=O)=O)ccc4c3=O)c21` (atropisomer, axis not shown; (P)) [Example 20, N—((S)-1-((3P)-3-(4-chloro-1-methyl-3-(methylsulfonamido)-1H-indazol-7-yl)-7-(3-(methylsulfonyl)propoxy)-4-oxo-3,4-dihydropyrido[2,3-d]pyrimidin-2-yl)-2-(3,5-difluorophenyl)ethyl)-2-((3bS,4aR)-3-(difluoromethyl)-5,5-difluoro-3b,4,4a,5-tetrahydro-1H-cyclopropa[3,4]cyclopenta[1,2-c]pyrazol-1-yl)acetamide] are 0.18 nM and more than 500 nM.
As for `C[C@H](Oc1ccc2c(=O)n(-c3ccc(Cl)c4c(NS(C)(=O)=O)nn(C)c34)c([C@H](Cc3cc(F)cc(F)c3)NC(=O)Cn3nc(C(F)F)c4c3C(F)(F)[C@@H]3C[C@H]43)nc2n1)C1CCCC1` (atropisomer, axis not shown; (P)) [Example 23, N—((S)-1-((3P)-3-(4-chloro-1-methyl-3-(methylsulfonamido)-1H-indazol-7-yl)-7-((S)-1-cyclopentylethoxy)-4-oxo-3,4-dihydropyrido[2,3-d]pyrimidin-2-yl)-2-(3,5-difluorophenyl)ethyl)-2-((3bS,4aR)-3-(difluoromethyl)-5,5-difluoro-3b,4,4a,5-tetrahydro-1H-cyclopropa[3,4]cyclopenta[1,2-c]pyrazol-1-yl)acetamide], the concentration for a half-maximal effect (EC50) in data set [1] stood at 0.17 nM. In data set [2], the CC50 at 4 days is more than 500 nM.
With `Cn1nc(NS(C)(=O)=O)c2c(Cl)ccc(-n3c([C@H](Cc4cc(F)cc(F)c4)NC(=O)Cn4nc(C(F)F)c5c4C(F)(F)[C@@H]4C[C@H]54)nc4nc(OCCC5CC5)ccc4c3=O)c21` (atropisomer, axis not shown; (P)) [Example 24, N—((S)-1-((3P)-3-(4-chloro-1-methyl-3-(methylsulfonamido)-1H-indazol-7-yl)-7-(2-cyclopropylethoxy)-4-oxo-3,4-dihydropyrido[2,3-d]pyrimidin-2-yl)-2-(3,5-difluorophenyl)ethyl)-2-((3bS,4aR)-3-(difluoromethyl)-5,5-difluoro-3b,4,4a,5-tetrahydro-1H-cyclopropa[3,4]cyclopenta[1,2-c]pyrazol-1-yl)acetamide], the EC50 in data set [1] came to 0.051 nM. In data set [2], this molecule had a half-maximal cytotoxic concentration (CC50) at 4 days of more than 500 nM.
For the molecule `CC(C)COCCOc1ccc2c(=O)n(-c3ccc(Cl)c4c(NS(C)(=O)=O)nn(C)c34)c([C@H](Cc3cc(F)cc(F)c3)NC(=O)Cn3nc(C(F)F)c4c3C(F)(F)[C@@H]3C[C@H]43)nc2n1` (atropisomer, axis not shown; (P)) [Example 25, N—((S)-1-((3P)-3-(4-chloro-1-methyl-3-(methylsulfonamido)-1H-indazol-7-yl)-7-(2-isobutoxyethoxy)-4-oxo-3,4-dihydropyrido[2,3-d]pyrimidin-2-yl)-2-(3,5-difluorophenyl)ethyl)-2-((3bS,4aR)-3-(difluoromethyl)-5,5-difluoro-3b,4,4a,5-tetrahydro-1H-cyclopropa[3,4]cyclopenta[1,2-c]pyrazol-1-yl)acetamide], in data set [1], the EC50 was determined as 0.054 nM. The cytotoxic concentration (CC50) at 4 days in data set [2] is more than 100 nM.

Source of the values: patent US11919897B2, “Inhibitors of human immunodeficiency virus replication” (VIIV HEALTHCARE UK (No. 5) LIMITED, priority 2018, dated 2024).
